# Assays:
# [1] = tested on: CEM cells; experiment: Immunoblotting of cell cycle and apoptotic proteins; assay type: cell-based, Human; details: 5 μM, 24, 48 and 72 h
# Description: (§1) Cell lysate was prepared after treating with SS28 (5 μM for 24, 48 and 72 h) from CEM and A549 cell lines. In brief, cells were harvested, washed with PBS, resuspended in lysis buffer (RIPA, 25 mM Tris (pH 7.6), 150 mM NaCl, 1% NP-40, 1% sodium deoxycholate and 0.1% SDS) containing protease inhibitors. The protein lysate was cleared by centrifugation (14,000 rpm, for 15 min). The protein concentration in the supernatant was determined using the Bradford’s assay.
# (§2) For western blot analysis, ~40 μg proteins were resolved over 8–10% SDS–polyacrylamide gel[60][61][62]. Following gel electrophoresis, proteins were transferred to PVDF membrane (Millipore, USAQ9). The primary antibodies used were against Caspase 3, Caspase 9, p73, p53, KU70, KU80, Cyclin B1, CDK6, PARP1 and Actin (Santa Cruz Biotechnology, USA). The membrane was incubated with appropriate HRP-conjugated secondary antibody (2 h at 4° C). The blots were developed using chemiluminescent solution (Immobilon^TM western, Millipore) and scanned by gel documentation system (LAS 3000, FUJI, Japan). Blots were stripped subsequently as per standard protocols and reprobed with anti β-Actin antibody.
# [2] = tested on: A549 cells; experiment: as above; assay type: cell-based, human; details: A549, 5 μM, 24, 48 and 72 h
# Description: as §1, §2
# [3] = tested on: purified Tubulin; experiment: Circular dichroism of Tubulin with SS28; assay type: binding; details: Tubulin 1 μM in PEM buffer, 200-260 nm, 4 °C
# Description: Purified Tubulin (1 μM) was resuspended in PEM buffer (80 mM PIPES (pH 6.9), 2 mM MgCl2, 0.5 mM EGTA, 1.0 mM GTP and 5% glycerol) and CD spectrum was recorded at a wavelength of 200 to 260 nm (4 °C) on a JASCO J-810 spectropolarimeter. 3 cycles were acquired for each sample at a scan speed of 100 nm/sec. Increasing concentration of SS28 (500 pM, 1, 10, 100 and 1000 nM) was incubated with Tubulin (1 μM) in PEM buffer and the spectrum was recorded. Spectral measurements were taken for buffer alone and buffer containing DMSO were subtracted from experimental data. The molar ellipticity was calculated using Spectra Manager software and plotted as a function of wavelength.
# [4] = tested on: Tubulin polymerisation in CEM cells; experiment: Cell based microtubule assembly (Tubulin polymerisation) assay; design: species or system Human; details: CEM, 2, 5 and 10 μM, 24 h, pellet fraction α-Tubulin immunoblot
# Description: Separation of insoluble polymerized Tubulin from soluble Tubulin dimers was performed as described. In brief, CEM cells (1 × 10^6) were treated with 2, 5 and 10 μM of SS28 for 24 h. Cells were harvested and washed with PBS before adding polymerization lysate buffer containing 20 mM Tris-HCl (pH 6.8), 1 mM MgCl2, 2 mM EGTA, […], 1 mM phenylmethylsulfonyl fluoride, 1 mM orthovanadate and 0.5% NP-40. After centrifugation of the lysates at 15,000 × g for 10 min at 4 °C, the pellets were resuspended in SDS-PAGE loading buffer and dissolved by heating at 95 °C for 10 min. α-Tubulin was then immunoblotted for the pellet fraction containing polymerized microtubules and supernatants containing depolymerised microtubules were equalised and resolved on 8% SDS PAGE.
# [5] = tested on: HEK293T; experiment: Trypan blue dye exclusion cell viability assay; assay type: cell-based, human; details: 1-20 μM, compared to most of the cancer cells
# Description: The effect of SS28 on viability of CEM, Reh, Nalm6, SUDHL8, Molt4, A549, HeLa 293T, mouse embryonic fibroblast (MEF) and PBMC was determined by trypan blue dye exclusion assay as described previously. Briefly, cells (0.75 × 10^5 cells/ml) were treated with increasing concentrations of SS28 (1, 5, 10 and 20, μM) for 48 and 72 h. DMSO treated cells were used as the vehicle control. Cells were harvested and subjected to trypan blue assay. Data from a minimum of three independent experiments is presented as a histogram with error bars.
# [6] = In vivo pharmacokinetics, HPLC of plasma; design: species or system BALB/c mice; details: mice, intraperitoneal, 15 mg/kg
# Description: Control and SS28 (15 mg/kg b.wt.) treated BALB/c mice were sacrificed and blood was collected at various time points (15, 30 min, 1 and 2 h; 2 each/time point) as described. Plasma (50 μl) was then extracted with acetonitrile, centrifuged (3,000 × g for 15 min) to remove precipitated proteins and the resulting supernatants were analyzed using HPLC (Waters, USA).
# Standard solution of SS28 was prepared by dissolving increasing concentration (25 to 100 μM) of the compound in acetonitrile. Standard calibration curves were plotted using peak area against the concentration of the compound and the retention time of the compound was also determined. Plasma concentrations of the treated groups were extrapolated from standard curves constructed by linear regression in Graph-Pad Prism 4.0 software (GraphPad Software, Inc.).
# [7] = tested on: EAC cells tumor; experiment: Antitumor activity in EAC solid tumor mouse model; assay type: in vivo; details: EAC tumor BALB/c mice, 15 mg/kg oral, nine doses every alternate day from 12th day, up to 28 days
# Description: EAC cells were collected from donor mice (Swiss albino) and resuspended in sterile saline. A fixed number of viable cells were injected into the peritoneal cavity of each recipient mouse and were allowed to multiply. The cells were withdrawn, diluted in saline and injected (15 × 10^5 cells/animal) into the right thigh tissue of experimental animals for developing solid tumor.
# A total number of 30 BALB/c mice were divided into three batches and were used for the present study. EAC cells (15 × 10^5 cells/animal) were injected into right thigh for the development of solid tumor as described previously. Among the 10 animals in each batch, 5 animals served as tumor control and the rest 5 animals received SS28 treatment (15 mg/kg b.wt.) by oral administration using gastric gavage. The dose used was selected based on preliminary studies. The first dose was given after 12th day of tumor development (9 doses over a period of 3 weeks). The diameter of developing tumor was measured using vernier calipers at alternative days for entire life span of tumor animal and tumor volume was calculated using the formula V = 0.5 × a × b^2, where “a” and “b” indicates the major and minor diameter, respectively.
# [8] = tested on: CEM cells; experiment: Intracellular ROS production (H2DCFDA, flow cytometry); assay type: cell-based, Human; details: 5 to 60 min
# Description: Intracellular ROS generation in cells was assessed using the oxidation-sensitive fluorescent probe 2,7-dichlorodihydro fluorescein diacetate (H2DCFDA) as previously described. CEM cells were treated with SS28 (5 μM) for 5, 10, 15, 30 and 60 min, harvested, washed and incubated with H2DCFDA (30 min at 37 °C) and then fluorescence intensity was analyzed by flow cytometry. H2O2 was used as the positive control.
smiles,measurement,setting,value
"COc1cc(/C=C/c2ccc(C)cc2)cc(OC)c1OC [SS28, (E)-1,2,3-trimethoxy-5-(4-methylstyryl)benzene]",Caspase 3,[1],showed activation
same,Caspase 9,[1],increase in the cleaved Caspase 9 level
same,PARP1,[1],activation of PARP1
same,expression level of Cdk6,[1],increased at 24 h followed by a decrease at 48 and 72 h
same,expression levels of p53,[1],upregulation of p53 at 24 h time point followed by a decrease in the later time points
same,level of Cyclin B1,[1],increased at 48 h time point in CEM cells followed by a decrease at 72 h
same,Caspase 3,[2],showed activation
same,Caspase 9,[2],increase in the cleaved Caspase 9 level
same,expression level of Cdk6,[2],increased at 24 h followed by a decrease at 48 and 72 h
same,expression levels of p73,[2],remained same
same,level of Cyclin B1,[2],"maintained throughout the time period, but with a moderate decrease at 48 h"
same,concentration from which a shift in the CD spectrum of Tubulin was seen,[3],≥ 500 pM
same,concentration from which Tubulin polymerisation was inhibited,[4],≥ 2 µM
same,cytotoxicity on normal cell line,[5],limited cytotoxicity
same,level of SS28 in the plasma,[6]; 15 min and 1 h post-treatment,detectable
same,level of SS28 in the plasma,[6]; 30 min after the injection,significant increase
same,level of SS28 in the plasma,[6]; after 1 h of treatment,significant decrease
same,tumor progression (tumor volume),[7],no further tumor progression
same,intracellular ROS production,[8],did not show generation of ROS

# — paper PMC5066224, “A Novel Resveratrol Based Tubulin Inhibitor Induces Mitotic Arrest and Activates Apoptosis in Cancer Cells” (Scientific Reports, 2016)
